According to PubChem BioAssay (NCI):
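Values below derive from 48-hour exposures of cells grown in 96-well plates, with endpoints linearly interpolated between the two concentrations bracketing the appropriate inhibition level.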 Active and inactive are the calls of the source. No stated cut-off is given here; in the data, active means GI50 below about 0.43 µM; inactive means the rest.

Experiments:
Test in all cases: NCI-60 cell line screen, 48 h
[1] = tested on: HCC-2998 colon
[2] = tested on: IGROV1 ovarian
[3] = tested on: MALME-3M melanoma
[4] = tested on: SF-295 CNS
[5] = tested on: SN12C renal
[6] = tested on: U251 CNS
[7] = tested on: SW-620 colon
[8] = tested on: OVCAR-8 ovarian
[9] = tested on: SK-MEL-2 melanoma
[10] = tested on: RPMI-8226 leukemia
[11] = tested on: DMS 273 small cell lung
[12] = tested on: UACC-257 melanoma
[13] = tested on: NCI-H460 lung
[14] = tested on: COLO 205 colon
[15] = tested on: HCT-15 colon
[16] = tested on: OVCAR-5 ovarian
[17] = tested on: SR leukemia
[18] = tested on: CCRF-CEM leukemia
[19] = tested on: M14 melanoma
[20] = tested on: SF-268 CNS
[21] = tested on: RXF 393 renal
[22] = tested on: SK-OV-3 ovarian
[23] = tested on: XF 498 CNS
[24] = tested on: OVCAR-4 ovarian
[25] = tested on: EKVX NSCLC
[26] = tested on: CAKI-1 renal
[27] = tested on: LOX IMVI melanoma
[28] = tested on: HOP-62 NSCLC
[29] = tested on: HL-60(TB) leukemia
[30] = tested on: LXFL 529 NSCLC
[31] = tested on: SNB-75 CNS
[32] = tested on: UO-31 renal
[33] = tested on: SNB-19 CNS
[34] = tested on: DMS 114 small cell lung
[35] = tested on: SNB-78 CNS
[36] = tested on: UACC-62 melanoma
[37] = tested on: M19-MEL melanoma
[38] = tested on: A549 NSCLC
[39] = tested on: SF-539 CNS
[40] = tested on: NCI-H522 lung
[41] = tested on: NCI-H23 lung
[42] = tested on: ACHN renal
[43] = tested on: NCI-H226 lung
[44] = tested on: HT29 colon
[45] = tested on: K-562 leukemia
[46] = tested on: KM12 colon
[47] = tested on: 786-0 renal
[48] = tested on: MOLT-4 leukemia
[49] = tested on: OVCAR-3 ovarian
[50] = tested on: KM20L2 colon
[51] = tested on: DLD-1 colon
[52] = tested on: HOP-92 NSCLC

Measured: outcome

C=C1C(=O)O[C@@H]2C1C(OC(C)CCC)[C@@H](O)[C@@H](C)C(O)C1O[C@]1(C)[C@H]2O (some centres not stated)
inactive: all assays above
